In publication PMC10084252, “PAF‐induced inflammatory and immuno‐allergic ophthalmic diseases and their mitigation with PAF receptor antagonists: Cell and nuclear effects” (Biofactors (Oxford, England), 2022):
Like-named read-outs stand apart in the source and are kept apart here. Where no end group is shown, it is not given here.

What was measured:
[1] = design: method as in PMID 20454616, PMID 21804199, PMID 23355413, PMID 28341636; conditions: cited from earlier work
[2] = target: PAF receptor (Oryctolagus cuniculus, UniProt G1TEI7); assay: [3H]‐PAF receptor binding to rabbit platelet membranes; conditions: read-out: [3H]‐PAF receptor binding inhibition constant (Ki, nM; Mean ± SEM)
Excerpt: (§1) FIGURE 5 Pharmacological profile of PAR receptor binding to platelet membranes. Figure 5A depicts the concentration‐dependent inhibition by unlabeled PAF receptor antagonists of different affinities for [^3H]‐PAF binding to rabbit platelet membranes in vitro. Figure 5B illustrates the correlation between the pharmacological profile of PAF receptor antagonists competing for [^3H]‐PAF binding to rabbit and human platelet membranes.

[3] = target: T1, PAF receptor (Homo sapiens, UniProt P25105); assay: [3H]‐PAF binding to human platelet membranes
T1 construct: from tissue; host or cells: human platelet membranes
Excerpt: FIGURE 5 Pharmacological profile of PAR receptor binding to platelet membranes.

[4] = test system: naïve mice; design: method as in PMID 15326102, PMID 20961214, PMID 24754407, PMID 2891830, PMID 8529415; conditions: cited from earlier work
[5] = test system: rod outer segments; design: method as in PMID 1427144; conditions: lithium‐ and light‐induced retinal degenerations animal models; cited from earlier work
[6] = test system: animals; design: method as in PMID 7859817; conditions: intravitreally injected PAF, pretreatment; cited from earlier work
[7] = test system: patients; design: method as in PMID 31816871; conditions: cited from earlier work
[8] = target: T1, PAF receptor; assay: [3H]‐WEB‐2086 binding to human platelet membranes; conditions: read-out: [3H]‐WEB‐2086 binding inhibition constant (Ki, nM; Mean ± SEM)
[9] = test system: human conjunctival epithelial cells (HCECs); design: method as in PMID 19513187; conditions: cited from earlier work
[10] = test system: human conjunctival epithelial cells (HCECs); design: method as in PMID 19513187; conditions: cited from earlier work; remark: listed apart in the source
[11] = test system: retinal capillary endothelial cells; design: method as in PMID 12356842; conditions: rat pups exposed to high levels of oxygen (model of ROP), prior treatment; cited from earlier work
[12] = test system: human conjunctival epithelial cells (HCECs); design: method as in PMID 9261768; conditions: cited from earlier work; for EC50: read-out: EC50 for increase of [3H]‐IPs
[13] = test system: photoreceptors; design: method as in PMID 15979612; conditions: retinal ischemia / oxidative stress; cited from earlier work
[14] = test system: human chronic diseases; design: method as in PMID 31816871; conditions: ulcerative colitis, myocardiac infarction, organ failure associated with pancreatitis, cognitive decline after bypass surgery, psoriasis; cited from earlier work
[15] = test system: HCEPI/CEPI‐17‐CL4 cells; design: method as in PMID 9856766, PMID 9559896, PMID 9863665, PMID 10235542, PMID 20187806; conditions: cited from earlier work
[16] = test system: HIS and PAF receptors; design: method as in PMID 1793070; conditions: cited from earlier work
[17] = test system: patients suffering from rhinitis; design: method as in PMID 23459334, PMID 31470575; conditions: oral, 4‐week period of dosing; cited from earlier work
[18] = design: method as in PMID 31816871; conditions: cited from earlier work
[19] = test system: asthma patients; design: method as in PMID 31816871; conditions: cited from earlier work
[20] = design: method as in PMID 31816871; conditions: cited from earlier work; remark: listed apart in the source
[21] = test system: laser‐induced choroidal neovascularization (CNV) in mice; design: method as in PMID 23826375; conditions: cited from earlier work
[22] = test system: rats; design: method as in PMID 9845270; conditions: streptozotocin‐induced diabetes in rats; cited from earlier work
[23] = design: method as in PMID 31816871; conditions: cited from earlier work; remark: listed apart in the source
[24] = test system: patients; design: method as in PMID 31816871; conditions: cited from earlier work; remark: listed apart in the source
[25] = test system: PAF receptors on rabbit and human platelets; assay: PAF receptor binding on platelets; conditions: Figure 5
Excerpt: as §1

[26] = target: PAF receptors in the bovine and rabbit cornea; design: method as in PMID 10067986; conditions: cited from earlier work
[27] = human platelet membranes, read-out: [3H]‐PAF receptor binding inhibition constant (Ki, nM; Mean ± SEM)

Chain of PAF receptor (Oryctolagus cuniculus, UniProt G1TEI7) (G1TEI7 1-342): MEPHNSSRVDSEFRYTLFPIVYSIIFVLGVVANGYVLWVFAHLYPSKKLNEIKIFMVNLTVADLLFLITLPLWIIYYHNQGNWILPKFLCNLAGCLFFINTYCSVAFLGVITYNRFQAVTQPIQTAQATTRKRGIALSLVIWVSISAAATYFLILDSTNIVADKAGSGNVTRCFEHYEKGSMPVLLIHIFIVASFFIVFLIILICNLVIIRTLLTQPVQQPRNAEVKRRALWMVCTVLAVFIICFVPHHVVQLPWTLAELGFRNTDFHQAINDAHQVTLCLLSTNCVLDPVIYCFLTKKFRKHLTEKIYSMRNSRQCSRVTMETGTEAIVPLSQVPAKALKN
T1 sequence (P25105 whole entry): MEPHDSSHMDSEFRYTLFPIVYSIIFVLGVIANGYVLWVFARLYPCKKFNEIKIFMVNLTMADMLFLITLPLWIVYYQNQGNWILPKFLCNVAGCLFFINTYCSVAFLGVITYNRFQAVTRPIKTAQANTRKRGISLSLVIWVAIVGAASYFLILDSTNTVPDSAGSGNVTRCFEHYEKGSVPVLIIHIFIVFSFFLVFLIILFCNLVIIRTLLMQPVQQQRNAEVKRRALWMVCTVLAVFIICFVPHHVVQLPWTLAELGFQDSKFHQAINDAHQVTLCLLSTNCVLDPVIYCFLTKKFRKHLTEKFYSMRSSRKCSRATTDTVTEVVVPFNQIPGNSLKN

Compound: C#Cc1cccc2c1c(C(=O)c1ccc(Cn3c(C)nc4cnccc43)c(F)c1)cn2C(=O)N(C)C [ABT‐491]
- Pain induced by ATP‐triggered PAF release [1]: blocked

Compound: CN(C)C(=O)n1cc(C(=O)c2ccn3c2CS[C@@H]3c2cccnc2)c2ccc(-c3ccc(F)cc3)cc21 [A‐85783]
- Ki [2]: 6.9 ± 1 nM

Compound: C#Cc1cccc2c1c(C(=O)c1ccc(Cn3c(C)nc4cnccc43)c(F)c1)cn2C(=O)N(C)C [A‐137491]
- Ki [3]: 3.9 ± 0.5 nM

Compound: COc1ccc(NC(=S)N2CCc3c(sc4c3C(c3ccccc3Cl)=NCc3nnc(C)n3-4)C2)cc1 [BN‐50730 (Rocipafant) LAU‐8080, Rocipafant]
- Ki [2]: 44.8 ± 7.2 nM

Compound: COc1ccc(SCC(=S)N2CCc3c(sc4c3C(c3ccccc3Cl)=NCc3nnc(C)n3-4)C2)cc1OC [BN‐50739]
- Ki [2]: 28.6 ± 8.4 nM
- Ki [3, 27]: 53.4 ± 1.9 nM

Compound: CC1C(=O)OC2C(O)C34C5CC(C(C)(C)C)C36C(OC(=O)C6O)OC4(C(=O)O5)C12O (stereo not drawn) [BN‐52021(Ginkolide B), Ginkgolide B]
- PAF‐induced ocular surface neovascularization [4]: inhibited
- Damage to rod outer segments [5]: effectively suppressed
- PAF‐induced disruption of choroidal endothelial cell layer and polymorphonuclear leukocyte infiltration [6]: mostly abolished
- PAF levels in patients [7]: reduction

Compound: CCCCCCCCCCCCCCCCCCNC(=O)OCC(COP(=O)([O-])OCC[n+]1ccsc1)OC (stereo not drawn) [CV‐3988]
- Ki [2]: 2900 ± 240 nM
- Ki [3, 27]: 3090 ± 889 nM
- Ki [8]: 3780 ± 759 nM
- Antagonism of PAF‐induced [Ca2+]i mobilization [9]: antagonized
- Effect on PAF‐induced synthesis and secretion of IL‐6, IL‐8 and GM‐CSF [10]: curtailed
- PAF‐induced ocular surface neovascularization [4]: inhibited
- Loss of retinal capillary endothelial cells [11]: reduced

Compound: Cc1nnc2n1-c1sc3c(c1C(c1ccccc1Cl)=N[C@H]2C)CCN(C(=O)C1CC1)C3 [E‐6123]
- Ki [2]: 9.3 ± 0.3 nM

Compound: NCCc1c[nH]cn1 [HIS, histamine]
- EC50 [12]: 3100 nM

Compound: CC1=C(C(=O)OCCOc2ccc(Cl)c(Cl)c2)C(C)C(C(=O)OC(CN2CCOCC2)CN2CCOCC2)=C(C)N1 (stereo not drawn) [LAU0901]
- Protection of photoreceptors and their terminals [13]: efficaciously protected

Compound: CCCCC/C=C\C\C=C/C=C/C=C/[C@@H](SC[C@H](NC(=O)CC[C@H](N)C(=O)O)C(=O)NCC(=O)O)[C@@H](O)CCCC(=O)O [LTC4]
- EC50 [12]: 300 nM

Compound: CCOC(=O)[C@H](CC(C)C)N(C)S(=O)(=O)c1ccc(Cn2c(C)nc3cnccc32)cc1 [Lexipafant]
- Efficacy in multiple human chronic diseases [14]: lack of efficacy

Compound: CCOC(=O)C1=C(c2ccc(-n3c(C)nc4cnccc43)cc2)NC(C)=C(C(=O)Nc2ccccn2)[C@H]1c1ccccc1Cl [Modipafant]
- Efficacy in multiple human chronic diseases [14]: lack of efficacy

Compound: CCOC[C@H](CC(C)C)N(C)S(=O)(=O)c1ccc(Cn2c(C)nc3cnccc32)cc1 [Nupafant]
- Ki [2]: 1.7 ± 0.6 nM

Compound: CCCCCCCCOc1ccccc1C(=O)Nc1ccc(C(=O)OCC[N+](C)(CC)CC)cc1 [Octylonium]
- Ki [3, 27]: 4335 ± 17.8 nM

Compound: COC(=O)C1=C(C)NC(C)=C(C(=O)OCCSc2ccccc2)C1C (stereo not drawn) [PCA‐4248]
- Ki [3, 27]: 634 nM
- Antagonism of PAF‐induced [Ca2+]i mobilization [9]: antagonized
- Effect on PAF‐induced synthesis and secretion of IL‐6, IL‐8 and GM‐CSF [10]: curtailed
- Effect on PAF‐induced IPs production [15]: blocked

Compound: CCCCC[C@H](O)/C=C/[C@@H]1[C@@H](C/C=C\CCCC(=O)O)[C@@H](O)C[C@H]1O [PGF2α]
- Stimulation of [3H]‐IPs (in words) [12]: inactive

Compound: CCCCCCCCCCCCCCCCCCNC(=O)OC[C@@H](COCCCC[n+]1ccsc1)OC(=O)OC [RO‐19‐3704]
- Ki [2]: 201 ± 22.5 nM

Compound: Cc1cncc(CN2CCC(=C3c4ccc(Cl)cc4CCc4cccnc43)CC2)c1 [SCH‐37370 (Rupatadine), Rupatadine]
- Affinities and potencies at both HIS and PAF receptors (in words) [16]: micromolar
- Nasal discharge, sneezing and nasal itching [17]: significantly reduced
- Ocular itching [17]: significantly reduced
- Effects in chronic idiopathic urticaria and allergic rhino‐conjunctivitis [18]: beneficial effects

Compound: C[C@@H]1S[C@H](c2cccnc2)N(C)C1=O [SM‐10661]
- Ki [2]: 7490 ± 875 nM
- Ki [3, 27]: 22800 nM
- Ki [8]: 9850 ± 1350 nM

Compound: CC(C)c1cc(C(C)C)c(-c2csc(N(CCN(C)C)Cc3cccnc3)n2)c(C(C)C)c1 [SR27417A]
- Efficacy in asthma patients [19]: modest efficacy
- Efficacy in multiple human chronic diseases [14]: lack of efficacy

Compound: CCC[n+]1cc(Br)cc(C(=O)N(CCC(=O)NCCOC(=O)N2CCc3ccccc3C2)c2ccccc2)c1.O=[N+]([O-])[O-] [TCV‐309]
- Ki [2]: 5.5 ± 0.2 nM
- Ki [3, 27]: 9.4 ± 3.1 nM
- Organ dysfunction and morbidity linked to septic shock [20]: reduction

Compound: Cc1nnc2n1-c1sc(CCC(=O)N3CCOCC3)cc1C(c1ccccc1Cl)=NC2 [WEB‐2086]
- Choroidal neovascularization and subretinal fibrosis induced by PAF [21]: inhibited
- Fluoresceine leakage (retinal vascular leakage) after laser‐induced CNV ([21]; mice, prior treatment, intraperitoneal and intravitreal administration): blockade
- Retinal blood vessel density [22]: helped preserve
- Erythema induced by UV‐light [23]: reduction

Compound: CC(C)(CCN1CCN(C(=O)C2CSC(c3cccnc3)N2)CC1)c1ccccc1 (stereo not drawn) [YM‐264]
- Ki [2]: 5.1 ± 0.6 nM
- Ki [3, 27]: 7.3 ± 1.8 nM

Compound: Cc1nnc2n1-c1sc(CCc3ccc(CC(C)C)cc3)cc1C(c1ccccc1Cl)=NC2C (stereo not drawn) [Y‐24180]
- Bronchial hyperresponsiveness [24]: improvement

Compound: Clc1ccc2c(c1)CCc1cccnc1C2=C1CCNCC1 [des‐loratadine]
- Nasal discharge, sneezing and nasal itching [17]: significantly reduced
- Ocular itching [17]: significantly reduced

Compound: Hexanolamine
- Ki [2]: 164 ± 15.4 nM

Compound: bradykinin (RPPGFSPFR; Bradykinin; UniProt P01042 381-389, looked up) [BK, mast cell mediator]
- EC50 [12]: 0.83 nM

Compound: endothelin (CSCSSLMDKECVYFCHLDIIW; ends and bridges not checked; cysteine pairing not given here; UniProt P05305 53-73, looked up)
- Stimulation of [3H]‐IPs (in words) [12]: inactive

Compound: platelet‐activating factor [PAF]
- Ki [2]: 3.7 ± 0.4 nM
- Ki [3, 27]: 3.1 ± 0.6 nM
- Ki [8]: 26.5 ± 2 nM
- Kd [25]: 0.5 nM
- EC50 [12]: 4.5 nM
- EC50 ([9]; read-out: EC50 for [Ca2+]i mobilization): 0.81 nM
- Kd [26]: 0.8 to 4.3 nM

Compound: substance P (RPKPQQFFGLM; ends and bridges not checked; UniProt P20366 58-68, looked up)
- Stimulation of [3H]‐IPs (in words) [12]: inactive
